In patent US20070232577A1, “Synthetic pentacyclic triterpenoids and derivatives of betulinic acid and betulin” (Advanced Life Sciences, Inc., priority 2006, published 2007):
≈ marks a conversion by molar mass, not a printed value.

What was measured:
[1] = system: A-375 (melanoma); test: MTS cell viability assay, A-375; assay type: cell-based; conditions: Homo sapiens, 72 h
Procedure: (§1) All treatments were performed in triplicate. […] Cells were incubated at 37° C. for 72 h.

[2] = system: LN-229 (glioblastoma); test: MTS cell viability assay, LN-229; assay type: cell-based; conditions: Homo sapiens, 72 h
Procedure: as §1

[3] = system: OVCAR-3 (ovarian carcinoma); test: MTS cell viability assay, OVCAR-3; assay type: cell-based; conditions: Homo sapiens, 72 h
Procedure: as §1

[4] = system: HT-29 (colon carcinoma); test: MTS cell viability assay, HT-29; assay type: cell-based; conditions: Homo sapiens, 72 h
Procedure: as §1

[5] = system: MCF-7 (breast carcinoma); test: MTS cell viability assay, MCF-7; assay type: cell-based; conditions: Homo sapiens, MCF7, 72 h
Procedure: as §1

[6] = system: Daoy; test: Caspase activation assay, Daoy; assay type: cell-based
Procedure: All treatments were performed in duplicate. […] Cells were incubated at 37° C. for 8 h. Caspase assay reagent (per 96-well plate) was prepared according to manufacturer's instructions (Homogeneous Caspases Assay, fluorometric, Roche) by combining 6.3 mL Incubation Buffer with 0.7 mL of Substrate Stock Solution. Caspase assay reagent (70 μL) was added to each well; the plate was gently shaken by hand for 15-20 seconds and incubated at 37° C. for 4 h.
Fluorescent emission was measured at 535 nm on a plate reader using the “homogeneous caspase” program (excitation Wavelength=490 nm, emission wavelength=535 nm). Duplicate wells for each treatment were averaged following background (no cells) subtraction (emission 535 nm value from all experimental emission 535 nm values) for each drug concentration.
DMSO treatment represented baseline caspase activation in the absence of drug. The percent changes in caspase activity were plotted on the y-axis for each drug treatment.

[7] = system: Daoy (glioblastoma); test: MTS cell viability assay, Daoy
Procedure: (§2) Cells were plated, the evening before treatment, for each treatment on 96-well plates (1×10^4 cells/well) in 100 μL volume per well. Drug solutions were prepared by diluting each test compound in DSMO (10 mM) with the appropriate cell growth media for each individual cell line, or in “Universal Media” if several cell lines were to be assayed in parallel, immediately prior to cell treatment. Universal Media consisted of 5 mL sodium pyruvate (100×liquid stock, CellGro), 5 mL glucose (100×, 45% liquid stock, CellGro), 5 mL Penicillin/Streptomycin (100×liquid stock, CellGro), 10 mL sodium bicarbonate (50×liquid stock, CellGro), 25 mL Fetal Calf Serum, 1.25 mL insulin (4 mg/mL, Gibco) and 449 mL RPMI media with 2 mM glutamine for a total volume of 500 mL. Cells were treated by aspirating media from each well and adding 80 μL of each drug solution to the attached cells. All treatments were performed in triplicate. Growth media (80 μL) were added to 3 blank wells (no cells) to measure background from the growth media Growth media alone (no DMSO or test compond) was added to 2 wells containing cells to measure the baseline MTS activity and vehicle (DMSO) control solutions were also included to monitor basal toxicity from DMSO. Cells were incubated at 37° C. for 72 h. MTS reagent (per 96-well plate) were prepared by combining 2 mL of MTS working solution (Cell Titer AQueous Non-Radioactive Cell Proliferation Assay, Promega, cat#G1112), 100 μL of 0.92 mg/mL phenazine methosulfate/Dulbecco's PBS and 2.1 mL growth media. MTS reagent (40 μL) were added to each well and incubated at 37° C. for 1.5 to 4 h. Plates were gently shaken by hand until solution in each well appeared homogenous. Absorbances at 490 nm were measured on a plate reader at multiple time points following the addition of MTS reagent for each plate. Triplicate absorbance (490 nm) measurements were averaged following background (no cell) subtraction for each drug concentration. Percent Cell Viability was calculated for each drug concentration using the following equation: {[Absorbances(drug treated)]/[Absorbances(DMSO treated)]}×100%
(§3) Percent viability (y-axis) was plotted against drug concentration (x-axis) and the resulting graph was used to determine the 50% inhibitory concentration (IC50) for each drug.

[8] = system: SK-MEL-2 (melanoma); test: MTS cell viability assay, SK-MEL-2; conditions: Homo sapiens, SK-MEL-2, 72 h, read-out: IC50 SK-MEL-2
Procedure: as §2, §3

`C=C(C)[C@@H]1CC[C@]2(COC(=O)CBr)CC[C@]3(C)[C@H](CC[C@@H]4[C@@]5(C)CC[C@H](O)C(C)(C)[C@@H]5CC[C@]43C)[C@@H]12` [Compound 13, ((1R,3aS,5aR,5bR,7aR,9S,11aR,11bR,13aR,13b R)-9-hydroxy-5a,5b,8,8,11a-pentamethyl-1-(prop-1-en-2-yl)icosahydro-1H-cyclopenta[a]chrysen-3a-yl)methyl 2-bromoacetate] gave an IC50 [1] of 29 µg/mL (≈ 51.4 µM), an IC50 [2] of 6 µg/mL (≈ 10.6 µM) and an IC50 [3] of 6 µg/mL (≈ 10.6 µM). For the same compound, the IC50 [4] was 10 µg/mL (≈ 17.7 µM), the IC50 [5] was 45 µg/mL (≈ 79.8 µM) and the “caspase activation in Daoy” value ([6]; Daoy, percent change versus DMSO) was “approx. 200%”. The “selectivity of apoptosis activation, Daoy versus SK-MEL-2 (in words)” value ([6]; caspase assay, Daoy in preference to SK-MEL-2) was “selectively activate apoptosis in Daoy in preference to SK-MEL-2”, the IC50 ([7]; Homo sapiens, Daoy, 72 h, read-out: IC50 Daoy) was 1.4 µg/mL (≈ 2.48 µM) and the “selectivity of cytotoxicity for Daoy (in words)” value ([7]; MTS assay, Daoy versus other cell lines) was “robust cytotoxic activity in Daoy but not in SK-MEL-2”. For the same compound, the IC50 [8] was 33 µg/mL (≈ 58.5 µM).
